Read-outs that look alike come from different tables or passages of the source.
Legend:
[1] = target: T1, hEP2/Gqs5 (Homo sapiens, UniProt P43116); assay: FLIPR calcium signal study, HEK-293(EBNA) cells; type: cell-based
T1 construct: expressed in transfected cells; host or cells: HEK-293(EBNA)
Description: (§1) Cells were seeded at a density of 5x10^4 cells per well in Biocoat® Poly-D-lysine-coated black-wall, clear-bottom 96-well plates (Becton-Dickinson) and allowed to attach overnight in an incubator at 37 °C. Cells were then washed two times with HBSS-HEPES buffer (Hanks Balanced Salt Solution without bicarbonate and phenol red, 20 mM HEPES, pH 7.4) using a Denley Cellwash plate washer (Labsystems). After 45 minutes of dye-loading in the dark, using the calcium-sensitive dye Fluo-4 AM at a final concentration of 2 µM, plates were washed four times with HBSS-HEPES buffer to remove excess dye leaving 100 µl in each well. Plates were re-equilibrated to 37 °C for a few minutes.
Cells were excited with an Argon laser at 488 nm, and emission was measured through a 510-570 nm bandwidth emission filter (FLIPR™, Molecular Devices, Sunnyvale, CA). […] The peak increase in fluorescence intensity was recorded for each well. […] The peak fluorescence change in each drug-containing well was then expressed relative to the controls.
(§2) Compounds were tested in a high-throughput (HTS) or concentration-response (CoRe) format. In the HTS format, forty-four compounds per plate were examined in duplicates at a concentration of 10^-5 M. To generate concentration-response curves, four compounds per plate were tested in duplicates in a concentration range between 10^-5 and 10^-11 M. The duplicate values were averaged.

[2] = target: T2, human EP2 receptors (Homo sapiens, UniProt P43116); assay: Competition binding, [3H]PGE2, HEK 293 cells stably expressing human EP2 receptors
T2 construct: expressed in transfected cells; host or cells: HEK 293
Description: Competition binding experiments were performed in a medium containing Hank's balanced salt solution, Hepes 20 mM, pH 7.3, membranes (∼60 µg protein) or 2x10^5 cells from HEK 293 cells stably expressing human EP2 receptors, [^3H]PGE2 (10 nM) and various concentrations of test compounds in a total volume of 300 µl. Reaction mixtures were incubated at 23 °C for 60 min, and were filtered over Whatman GF/B filters under vacuum. Filters were washed three times with 5 ml ice-cold buffer containing 50 mM Tris/HCl (pH 7.3). Non-specific binding was estimated in the presence of excess unlabeled PGE2 (10 µM). Binding data fitted to the binding model for a single class of binding sites, using nonlinear regression analysis.
(§3) HEK-293 cells stably expressing the human or feline FP receptor, or EP1, EP2, or EP4 receptors were washed with TME buffer, scraped from the bottom of the flasks, and homogenized for 30 sec using a Brinkman PT 10/35 polytron. TME buffer was added to achieve a final 40 ml volume in the centrifuge tubes (the composition of TME is 100 mM TRIS base, 20 mM MgCl2, […]; 10N HCl is added to achieve a pH of 7.4).
(§4) The cell homogenate was centrifuged at 19000 r.p.m. for 20 min at 4° C using a Beckman Ti-60 rotor. The resultant pellet was resuspended in TME buffer to give a final 1 mg/ml protein concentration, as determined by Biorad assay. Radioligand binding competition assays vs. [^3H-]17 -phenyl PGF2α (5 nM) were performed in a 100µl volume for 60 min. Binding reactions were started by adding plasma membrane fraction. The reaction was terminated by the addition of 4 ml ice-cold TRIS-HCl buffer and rapid filtration through glass fiber GF/B filters using a Brandel cell harvester. The filters were washed 3 times with ice-cold buffer and oven dried for one hour.
(§5) [^3H-] PGE2 (specific activity 180 Ci mmol) was used as the radioligand for EP receptors. [^3H] 17-phenyl PGF2α was employed for FP receptor binding studies. Binding studies employing EP1, EP2, EP4 and FP receptors were performed in duplicate in at least three separate experiments. A 200µl assay volume was used. Incubations were for 60 min at 25°C and were terminated by the addition of 4 ml of ice-cold 50 mM TRIS-HCl, followed by rapid filtration through Whatman GF/B filters and three additional 4 ml washes in a cell harvester (Brandel). Competition studies were performed using a final concentration of 5 nM [^3H]-PGE2, or 5 nM [^3H] 17-phenyl PGF2α and non-specific binding determined with 10^-5M of unlabeled PGE2, or 17-phenyl PGF2α, according to receptor subtype studied.

[3] = target: T3, HEP3 (Homo sapiens, UniProt P43115); assay: Radioligand binding, EP3 receptor; settings: Table 3; NA means not active
T3 sequence (P43115 1-390): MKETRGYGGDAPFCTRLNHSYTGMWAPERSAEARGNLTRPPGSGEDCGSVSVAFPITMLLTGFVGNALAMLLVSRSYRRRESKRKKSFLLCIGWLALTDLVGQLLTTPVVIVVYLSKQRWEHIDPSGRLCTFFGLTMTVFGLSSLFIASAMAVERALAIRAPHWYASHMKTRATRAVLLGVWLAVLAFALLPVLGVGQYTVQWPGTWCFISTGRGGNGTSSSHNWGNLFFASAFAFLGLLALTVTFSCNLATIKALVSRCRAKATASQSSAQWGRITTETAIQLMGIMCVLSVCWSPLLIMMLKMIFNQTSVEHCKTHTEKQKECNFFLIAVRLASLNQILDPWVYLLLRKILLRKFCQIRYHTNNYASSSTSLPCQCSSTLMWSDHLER

[4] = target: T4, hEP3A/Gqi5 (Homo sapiens, UniProt P43115); assay: FLIPR calcium signal study, HEK-293(EBNA) cells; type: cell-based; settings: Table 3; read-out: FUNCTIONAL (Ca2+, EC50, nM) HEP3A
T4 construct: expressed in transfected cells; host or cells: HEK-293(EBNA)
T4 sequence (P43115 1-390): T3 sequence (P43115 1-390)
Description: (§6) HEK-293(EBNA) cells, stably expressing one type or subtype of recombinant human prostaglandin receptors (prostaglandin receptors expressed: hDP/Gqs5; hEP1; hEP2/Gqs5; hEP3A/Gqi5; hEP4/Gqs5; hFP; hIP; hTP), were cultured in 100 mm culture dishes in high-glucose DMEM medium containing 10% fetal bovine serum, 2 mM I-glutamine, 250 µg/ml geneticin (G418) and 200 µg/ml hygromycin B as selection markers, and 100 units/ml penicillin G, 100 µg/ml streptomycin and 0.25 µg/ml amphotericin B.
as §1
(§7) Cells were excited with an Argon laser at 488 nm, and emission was measured through a 510-570 nm bandwidth emission filter (FLIPR™, Molecular Devices, Sunnyvale, CA). Drug solution was added in a 50 µl volume to each well to give the desired final concentration. The peak increase in fluorescence intensity was recorded for each well. On each plate, four wells each served as negative (HBSS-HEPES buffer) and positive controls (standard agonists: BW245C (hDP); PGE2 (hEP1; hEP2/Gqs5; hEP3A/Gqi5; hEP4/Gqs5); PGF2α (hFP); carbacyclin (hIP); U-46619 (hTP), depending on receptor). The peak fluorescence change in each drug-containing well was then expressed relative to the controls.
as §2, with “averaged. In either, HTS or CoRe format each compound was tested on at least 3 separate plates using cells from different passages to give an n ≥ 3.” for “averaged.”

[5] = target: T5, EP4 receptors (Homo sapiens, UniProt P35408); assay: Radioligand binding, EP4 receptor; settings: Table 3; read-out: BINDING (Ki, nM) HEP4
T5 construct: expressed in transfected cells; host or cells: HEK-293
Description: as §3, §4, §5

[6] = target: T6, hTP (Homo sapiens, UniProt P21731); assay: FLIPR calcium signal study, HEK-293(EBNA) cells; type: cell-based; settings: Table 1; NA means not active; read-out: FUNCTIONAL (Ca2+, EC50, nM) HTP
T6 construct: expressed in transfected cells; host or cells: HEK-293(EBNA)
T6 sequence (P21731 1-343): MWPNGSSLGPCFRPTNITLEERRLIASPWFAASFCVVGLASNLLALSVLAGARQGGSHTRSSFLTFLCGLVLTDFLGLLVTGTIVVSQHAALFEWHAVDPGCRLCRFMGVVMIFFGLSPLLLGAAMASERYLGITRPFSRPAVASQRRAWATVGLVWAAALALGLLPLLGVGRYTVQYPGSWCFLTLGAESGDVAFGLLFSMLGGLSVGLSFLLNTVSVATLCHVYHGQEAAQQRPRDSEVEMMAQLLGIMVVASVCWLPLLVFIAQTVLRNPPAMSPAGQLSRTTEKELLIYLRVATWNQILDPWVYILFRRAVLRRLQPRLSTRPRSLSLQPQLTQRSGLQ
Description: as §6, §1, §7
as §2, with “averaged. In either, HTS or CoRe format each compound was tested on at least 3 separate plates using cells from different passages to give an n ≥ 3.” for “averaged.”

[7] = target: T7, hEP4/Gqs5 (Homo sapiens, UniProt P35408); assay: FLIPR calcium signal study, HEK-293(EBNA) cells; type: cell-based; settings: Table 1; NA means not active; read-out: FUNCTIONAL (Ca2+, EC50, nM) HEP 4
T7 construct: expressed in transfected cells; host or cells: HEK-293(EBNA)
Description: as §6, §1, §7
as §2, with “averaged. In either, HTS or CoRe format each compound was tested on at least 3 separate plates using cells from different passages to give an n ≥ 3.” for “averaged.”

[8] = Table 1, Ca2+ signal, NA means not active, read-out: FUNCTIONAL (Ca2+, EC50, nM) HEP 2
[9] = Table 2, unit inferred, read-out: FUNCTIONAL HEP2
[10] = Table 2, unit inferred, read-out: BINDING HEP2

T1 sequence (P43116 whole entry): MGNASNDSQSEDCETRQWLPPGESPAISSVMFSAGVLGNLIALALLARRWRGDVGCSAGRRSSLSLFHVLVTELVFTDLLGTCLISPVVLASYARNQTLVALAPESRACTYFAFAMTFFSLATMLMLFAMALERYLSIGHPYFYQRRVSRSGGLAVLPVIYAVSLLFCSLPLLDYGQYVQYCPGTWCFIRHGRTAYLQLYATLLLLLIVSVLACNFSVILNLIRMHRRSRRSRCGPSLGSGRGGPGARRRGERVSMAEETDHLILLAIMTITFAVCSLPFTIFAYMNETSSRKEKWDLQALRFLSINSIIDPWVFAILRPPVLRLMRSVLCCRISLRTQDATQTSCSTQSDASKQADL
T2 sequence (P43116 whole entry): as above
T5 sequence (P35408 whole entry): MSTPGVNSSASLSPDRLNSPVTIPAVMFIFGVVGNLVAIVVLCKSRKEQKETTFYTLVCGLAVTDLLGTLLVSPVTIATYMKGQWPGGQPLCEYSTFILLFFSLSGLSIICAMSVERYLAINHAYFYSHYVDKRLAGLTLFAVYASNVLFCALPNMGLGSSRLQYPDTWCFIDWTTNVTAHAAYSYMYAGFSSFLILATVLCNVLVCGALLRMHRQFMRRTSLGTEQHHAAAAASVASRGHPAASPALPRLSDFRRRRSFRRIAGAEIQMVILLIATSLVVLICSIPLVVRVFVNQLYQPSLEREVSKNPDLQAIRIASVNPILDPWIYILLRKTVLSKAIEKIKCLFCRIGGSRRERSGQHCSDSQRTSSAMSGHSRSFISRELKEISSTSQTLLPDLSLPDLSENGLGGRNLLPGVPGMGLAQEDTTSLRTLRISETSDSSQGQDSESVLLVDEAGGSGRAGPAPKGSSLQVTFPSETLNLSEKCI
T7 sequence (P35408 whole entry): as above

## COC(=O)CCC/C=C\C[C@H]1C(=O)CC[C@@H]1c1ccc(C(O)C2CCCCC2)cc1 (some centres unmarked) [Entry 10]
[1]; [8]
  EC50: > 10000 nM

## CCCCCC(O)c1ccc([C@H]2CCC(=O)[C@@H]2C/C=C\CCCC(=O)OC)cc1 (some centres unmarked) [drawing 96]
[1]; [9]
  EC50: 15000 nM
[2]; [10]
  Ki: 15000 nM

## CC(C)(C)c1ccc([C@H]2CCC(=O)[C@@H]2C/C=C\CCCC(=O)O)cc1 [Entry 8]
[1]; [8]
  EC50: 1050 nM

## CCCCCC(O)c1ccc([C@H]2CCC(=O)[C@@H]2CCCCCCC(=O)O)cc1 (some centres unmarked)
[3]
  Ki: 5200 nM
[1]; Table 3, read-out: FUNCTIONAL (Ca2+, EC50, nM) HEP2
  EC50: 284 nM
[4]
  EC50: 90 nM
[2]; Table 3, read-out: BINDING (Ki, nM) HEP2
  Ki: 871 nM
[5]
  Ki: 15000 nM

## CCCCCC(O)c1ccc([C@H]2CCC(=O)[C@@H]2C/C=C\CCCC(=O)OC)cc1 (some centres unmarked) [drawing 115]
[4]
  EC50: 15000 nM
[5]
  Ki: 15000 nM

## CCCC1(C(O)c2cccc([C@H]3CCC(=O)[C@@H]3C/C=C\CCCC(=O)O)c2)CCC1 (some centres unmarked) [Entry 2]
[1]; [8]
  EC50: 2660 nM

## CCCCC(O)Cc1ccc([C@H]2CCC(=O)[C@@H]2CCCCCCC(=O)OC)cc1 (some centres unmarked)
[1]; [9]
  EC50: 15000 nM
[2]; [10]
  Ki: 4600 nM

## O=C(O)CCCCCC[C@H]1C(=O)CC[C@@H]1c1ccc(C(O)C2CCCCC2)cc1 (some centres unmarked) [Entry 13]
[1]; [8]
  EC50: 2050 nM

## CCCCCC(O)c1ccc([C@H]2CCC(=O)[C@@H]2CCCCCCC(=O)O)s1 (some centres unmarked)
[1]
  EC50: 769 nM
[2]; [10]
  Ki: 600 nM

## COC(=O)CCCCCC[C@H]1C(=O)CC[C@@H]1c1ccc(C(O)C2CCCCC2)cc1 (some centres unmarked) [Entry 12]
[1]; [8]
  EC50: > 10000 nM
[6]
  EC50: > 10000 nM

## CCCCCC(O)c1ccc([C@H]2CCC(=O)[C@@H]2C/C=C\CCCC(=O)O)cc1 (some centres unmarked) [drawing 97]
[1]; [9]
  EC50: 1010 nM
[2]; [10]
  Ki: 700 nM

## O=C(O)CCCCCC[C@H]1[C@H](Cl)CC[C@@H]1c1ccc(C(O)C2CCCCC2)cc1 (some centres unmarked) [Entry 21]
[1]; [8]
  EC50: > 10000 nM
[6]
  EC50: > 10000 nM

## CCCC1(C(O)c2cccc([C@H]3CCC(=O)[C@@H]3C/C=C\CCCC(=O)OC)c2)CCC1 (some centres unmarked) [Entry 1]
[6]
  EC50: > 10000 nM

## CCCC1(C(O)c2ccc([C@H]3CCC(=O)[C@@H]3C/C=C\CCCC(=O)O)cc2)CCC1 (some centres unmarked) [Entry 9]
[1]; [8]
  EC50: > 10000 nM
[7]
  EC50: > 10000 nM
